Data from the NIST ThermoML archive (doi:10.1021/je500594z).
Numbers after ± are expanded uncertainties.

Assay: xn = mol fraction of the nth substance listed
Conditions: 101 kPa, Liquid; for viscosity: Falling or rolling sphere viscometry; for speed of sound: Sing-around technique in a fixed-path interferometer; for mass density: Vibrating tube method

In the case of `CCCCCC[n+]1ccn(C)c1.O=S(=O)([N-]S(=O)(=O)C(F)(F)F)C(F)(F)F` + CCO, the viscosity (278.15 K, x1 = 0.047) is reported as 2.69 ± 0.02 mPa·s, the viscosity (278.15 K, x1 = 0.097) is reported as 4.32 ± 0.03 mPa·s and the viscosity (278.15 K, x1 = 0.198) is reported as 9.53 ± 0.08 mPa·s. For the same compound, the viscosity (278.15 K, x1 = 0.292) was 16.27 ± 0.13 mPa·s, the viscosity (278.15 K, x1 = 0.39) was 25.73 ± 0.2 mPa·s and the viscosity (278.15 K, x1 = 0.47) was 35.73 ± 0.29 mPa·s. For the same compound, the viscosity (278.15 K, x1 = 0.596) was 56.91 ± 0.26 mPa·s, the viscosity (278.15 K, x1 = 0.694) was 79.17 ± 1.2 mPa·s and the viscosity (278.15 K, x1 = 0.799) was 112.54 ± 3.1 mPa·s. The viscosity (278.15 K, x1 = 0.903) was 154.54 ± 5.9 mPa·s, the viscosity (278.15 K, x1 = 1) was 211.31 ± 10 mPa·s and the speed of sound (278.15 K, x1 = 0.047) was 1208.7 ± 0.63 m/s. It also gave a speed of sound (278.15 K, x1 = 0.097) of 1211.4 ± 0.63 m/s, a speed of sound (278.15 K, x1 = 0.198) of 1222.7 ± 0.64 m/s and a speed of sound (278.15 K, x1 = 0.292) of 1233.9 ± 0.64 m/s. For the same compound, the speed of sound (278.15 K, x1 = 0.39) was 1242.8 ± 0.65 m/s, the speed of sound (278.15 K, x1 = 0.47) was 1250.3 ± 0.65 m/s and the speed of sound (278.15 K, x1 = 0.596) was 1258.1 ± 0.65 m/s. For the same compound, the speed of sound (278.15 K, x1 = 0.694) was 1262.6 ± 0.65 m/s, the speed of sound (278.15 K, x1 = 0.799) was 1267.2 ± 0.66 m/s and the speed of sound (278.15 K, x1 = 0.903) was 1271.2 ± 0.66 m/s. It also gave a speed of sound (278.15 K, x1 = 1) of 1274.6 ± 0.66 m/s, a mass density (278.15 K, x1 = 0.047) of 933.23 ± 0.12 kg/m3 and a mass density (278.15 K, x1 = 0.097) of 1026.67 ± 0.14 kg/m3. It also gave a mass density (278.15 K, x1 = 0.198) of 1146.24 ± 0.21 kg/m3, a mass density (278.15 K, x1 = 0.292) of 1215.04 ± 0.21 kg/m3 and a mass density (278.15 K, x1 = 0.39) of 1263.14 ± 0.22 kg/m3. The mass density (278.15 K, x1 = 0.47) was 1292.55 ± 0.21 kg/m3, the mass density (278.15 K, x1 = 0.596) was 1327.21 ± 0.19 kg/m3 and the mass density (278.15 K, x1 = 0.694) was 1347.34 ± 0.18 kg/m3. For the same compound, the mass density (278.15 K, x1 = 0.799) was 1364.86 ± 0.18 kg/m3, the mass density (278.15 K, x1 = 0.903) was 1379.2 ± 0.18 kg/m3 and the mass density (278.15 K, x1 = 1) was 1390.3 ± 0.19 kg/m3. It also gave a viscosity (298.15 K, x1 = 0.047) of 1.73 ± 0.01 mPa·s, a viscosity (298.15 K, x1 = 0.097) of 2.61 ± 0.02 mPa·s and a viscosity (298.15 K, x1 = 0.198) of 4.98 ± 0.04 mPa·s. For the same compound, the viscosity (298.15 K, x1 = 0.292) was 7.97 ± 0.06 mPa·s, the viscosity (298.15 K, x1 = 0.39) was 12.1 ± 0.1 mPa·s and the viscosity (298.15 K, x1 = 0.47) was 15.94 ± 0.13 mPa·s. It also gave a viscosity (298.15 K, x1 = 0.596) of 23.72 ± 0.19 mPa·s, a viscosity (298.15 K, x1 = 0.694) of 31.3 ± 0.25 mPa·s and a viscosity (298.15 K, x1 = 0.799) of 41.44 ± 0.33 mPa·s. The viscosity (298.15 K, x1 = 0.903) was 53.7 ± 0.17 mPa·s, the viscosity (298.15 K, x1 = 1) was 70.46 ± 0.82 mPa·s and the speed of sound (298.15 K, x1 = 0.047) was 1145.7 ± 0.61 m/s. For the same compound, the speed of sound (298.15 K, x1 = 0.097) was 1152.5 ± 0.61 m/s, the speed of sound (298.15 K, x1 = 0.198) was 1168.4 ± 0.62 m/s and the speed of sound (298.15 K, x1 = 0.292) was 1181.9 ± 0.62 m/s. It also gave a speed of sound (298.15 K, x1 = 0.39) of 1192.3 ± 0.63 m/s, a speed of sound (298.15 K, x1 = 0.47) of 1200.6 ± 0.63 m/s and a speed of sound (298.15 K, x1 = 0.596) of 1209.2 ± 0.63 m/s. For the same compound, the speed of sound (298.15 K, x1 = 0.694) was 1214.1 ± 0.64 m/s, the speed of sound (298.15 K, x1 = 0.799) was 1218.9 ± 0.64 m/s and the speed of sound (298.15 K, x1 = 0.903) was 1223.1 ± 0.64 m/s. It also gave a speed of sound (298.15 K, x1 = 1) of 1226.8 ± 0.64 m/s, a mass density (298.15 K, x1 = 0.047) of 915.22 ± 0.13 kg/m3 and a mass density (298.15 K, x1 = 0.097) of 1008.17 ± 0.14 kg/m3. The mass density (298.15 K, x1 = 0.198) was 1127.27 ± 0.21 kg/m3, the mass density (298.15 K, x1 = 0.292) was 1195.96 ± 0.21 kg/m3 and the mass density (298.15 K, x1 = 0.39) was 1244.05 ± 0.22 kg/m3. For the same compound, the mass density (298.15 K, x1 = 0.47) was 1273.5 ± 0.2 kg/m3, the mass density (298.15 K, x1 = 0.596) was 1308.27 ± 0.19 kg/m3 and the mass density (298.15 K, x1 = 0.694) was 1328.48 ± 0.17 kg/m3. For the same compound, the mass density (298.15 K, x1 = 0.799) was 1346.07 ± 0.17 kg/m3, the mass density (298.15 K, x1 = 0.903) was 1360.48 ± 0.18 kg/m3 and the mass density (298.15 K, x1 = 1) was 1371.64 ± 0.18 kg/m3. The viscosity (318.15 K, x1 = 0.047) was 1.18 ± 0.01 mPa·s, the viscosity (318.15 K, x1 = 0.097) was 1.71 ± 0.01 mPa·s and the viscosity (318.15 K, x1 = 0.198) was 3.05 ± 0.02 mPa·s. For the same compound, the viscosity (318.15 K, x1 = 0.292) was 4.64 ± 0.04 mPa·s, the viscosity (318.15 K, x1 = 0.39) was 6.7 ± 0.05 mPa·s and the viscosity (318.15 K, x1 = 0.47) was 8.61 ± 0.07 mPa·s. The viscosity (318.15 K, x1 = 0.596) was 12.33 ± 0.1 mPa·s, the viscosity (318.15 K, x1 = 0.694) was 15.72 ± 0.12 mPa·s and the viscosity (318.15 K, x1 = 0.799) was 20.13 ± 0.16 mPa·s. For the same compound, the viscosity (318.15 K, x1 = 0.903) was 24.94 ± 0.2 mPa·s, the viscosity (318.15 K, x1 = 1) was 30.22 ± 0.24 mPa·s and the speed of sound (318.15 K, x1 = 0.047) was 1085 ± 0.59 m/s. The speed of sound (318.15 K, x1 = 0.097) was 1095.9 ± 0.59 m/s, the speed of sound (318.15 K, x1 = 0.198) was 1116.3 ± 0.6 m/s and the speed of sound (318.15 K, x1 = 0.292) was 1131.9 ± 0.61 m/s. The speed of sound (318.15 K, x1 = 0.39) was 1143.8 ± 0.61 m/s, the speed of sound (318.15 K, x1 = 0.47) was 1153 ± 0.61 m/s and the speed of sound (318.15 K, x1 = 0.596) was 1162.6 ± 0.62 m/s. For the same compound, the speed of sound (318.15 K, x1 = 0.694) was 1168 ± 0.62 m/s, the speed of sound (318.15 K, x1 = 0.799) was 1173.4 ± 0.62 m/s and the speed of sound (318.15 K, x1 = 0.903) was 1178 ± 0.62 m/s. For the same compound, the speed of sound (318.15 K, x1 = 1) was 1182 ± 0.62 m/s, the mass density (318.15 K, x1 = 0.047) was 896.92 ± 0.13 kg/m3 and the mass density (318.15 K, x1 = 0.097) was 989.44 ± 0.14 kg/m3. The mass density (318.15 K, x1 = 0.198) was 1108.22 ± 0.21 kg/m3, the mass density (318.15 K, x1 = 0.292) was 1176.89 ± 0.21 kg/m3 and the mass density (318.15 K, x1 = 0.39) was 1225.05 ± 0.21 kg/m3. It also gave a mass density (318.15 K, x1 = 0.47) of 1254.61 ± 0.2 kg/m3, a mass density (318.15 K, x1 = 0.596) of 1289.55 ± 0.18 kg/m3 and a mass density (318.15 K, x1 = 0.694) of 1309.88 ± 0.17 kg/m3. The mass density (318.15 K, x1 = 0.799) was 1327.59 ± 0.17 kg/m3, the mass density (318.15 K, x1 = 0.903) was 1342.08 ± 0.17 kg/m3 and the mass density (318.15 K, x1 = 1) was 1353.31 ± 0.17 kg/m3. The speed of sound (338.15 K, x1 = 0.047) was 1025.6 ± 0.56 m/s, the speed of sound (338.15 K, x1 = 0.097) was 1040.6 ± 0.57 m/s and the speed of sound (338.15 K, x1 = 0.198) was 1065.5 ± 0.58 m/s. It also gave a speed of sound (338.15 K, x1 = 0.292) of 1083.5 ± 0.59 m/s, a speed of sound (338.15 K, x1 = 0.39) of 1097 ± 0.59 m/s and a speed of sound (338.15 K, x1 = 0.47) of 1107.2 ± 0.6 m/s. For the same compound, the speed of sound (338.15 K, x1 = 0.596) was 1118 ± 0.6 m/s, the speed of sound (338.15 K, x1 = 0.694) was 1124 ± 0.6 m/s and the speed of sound (338.15 K, x1 = 0.799) was 1130 ± 0.6 m/s. It also gave a speed of sound (338.15 K, x1 = 0.903) of 1135.2 ± 0.6 m/s, a speed of sound (338.15 K, x1 = 1) of 1139.3 ± 0.61 m/s and a mass density (338.15 K, x1 = 0.047) of 878.04 ± 0.14 kg/m3. For the same compound, the mass density (338.15 K, x1 = 0.097) was 970.28 ± 0.14 kg/m3, the mass density (338.15 K, x1 = 0.198) was 1088.96 ± 0.21 kg/m3 and the mass density (338.15 K, x1 = 0.292) was 1157.75 ± 0.2 kg/m3. For the same compound, the mass density (338.15 K, x1 = 0.39) was 1206.1 ± 0.21 kg/m3, the mass density (338.15 K, x1 = 0.47) was 1235.83 ± 0.19 kg/m3 and the mass density (338.15 K, x1 = 0.596) was 1271.01 ± 0.17 kg/m3. For the same compound, the mass density (338.15 K, x1 = 0.694) was 1291.5 ± 0.16 kg/m3, the mass density (338.15 K, x1 = 0.799) was 1309.35 ± 0.16 kg/m3 and the mass density (338.15 K, x1 = 0.903) was 1323.94 ± 0.16 kg/m3. The mass density (338.15 K, x1 = 1) was 1335.25 ± 0.17 kg/m3.
